Test results taken from patent US5473039A, “Polypeptide analogs of apolipoprotein E, diagnostic systems and methods using the analogs” (The Scripps Research Institute, priority 1991, dated 1995).

How the values were obtained:
LDL receptor [1] = target: T1, LDL receptor (Homo sapiens, UniProt P01130); experiment: fibroblast 125I-LDL degradation; assay type: cell-based; design: transferred to DMEM medium with 10% lipoprotein-depleted serum (LPDS) for 48 hr to upregulate the LDL receptors; endogenous in cells; host or cells: normal fibroblasts; settings: low concentrations of the tandem peptide
T1 sequence (P01130 22-860): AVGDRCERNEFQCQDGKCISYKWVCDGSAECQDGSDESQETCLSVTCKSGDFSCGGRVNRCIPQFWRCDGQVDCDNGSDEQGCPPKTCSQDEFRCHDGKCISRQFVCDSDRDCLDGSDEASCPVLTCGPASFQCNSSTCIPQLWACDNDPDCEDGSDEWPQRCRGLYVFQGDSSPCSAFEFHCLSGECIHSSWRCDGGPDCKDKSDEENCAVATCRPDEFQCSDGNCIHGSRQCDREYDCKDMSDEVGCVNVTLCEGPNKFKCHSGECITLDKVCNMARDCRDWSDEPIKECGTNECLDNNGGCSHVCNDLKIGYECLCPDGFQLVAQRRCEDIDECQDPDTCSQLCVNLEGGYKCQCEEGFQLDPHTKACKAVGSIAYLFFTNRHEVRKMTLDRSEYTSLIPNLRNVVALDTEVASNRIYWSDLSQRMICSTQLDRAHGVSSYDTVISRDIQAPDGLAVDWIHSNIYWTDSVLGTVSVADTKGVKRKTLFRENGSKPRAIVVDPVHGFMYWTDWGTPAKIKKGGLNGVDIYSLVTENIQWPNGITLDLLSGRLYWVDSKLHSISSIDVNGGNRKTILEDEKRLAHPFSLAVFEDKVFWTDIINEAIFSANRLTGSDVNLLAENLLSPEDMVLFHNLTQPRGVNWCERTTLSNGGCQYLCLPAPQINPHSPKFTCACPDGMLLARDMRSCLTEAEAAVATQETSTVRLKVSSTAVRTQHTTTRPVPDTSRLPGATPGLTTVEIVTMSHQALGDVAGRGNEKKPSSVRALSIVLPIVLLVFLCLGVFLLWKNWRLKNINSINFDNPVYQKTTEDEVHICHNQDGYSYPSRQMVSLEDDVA
Procedure: A trimer of the p141-155 peptide, p(141-155)3, was synthesized as in Example 1 and its activity compared with p(141-155) (monomeric) and with p(141-155)2 (dimeric) peptide. Normal fibroblasts were plated in wells of a 96-well culture plate and grown for 96 hr in DMEM medium with 10% FBS. The cells were transferred to DMEM medium with 10% LPDS for 48 hr to up regulate the LDL receptors. The LDL degradation assay was performed according to Example 9 with 2 μg/ml of ^125 I-LDL (300-500 cpm/ng) in 0.2 ml/well in DMEM medium with 10% LPDS and incubated for 5 hr at 37° C. The supernatants removed from the wells were extracted with 10% TCA. The TCA soluble counts were normalized to protein content per well as measured by the Bio-Rad protein assay.

LDL receptor [2] = target: T1, LDL receptor; experiment: 125I-LDL degradation by unstimulated THP-1 cells; assay type: cell-based; design: In the undifferentiated state THP-1 cells express LDL receptors that are regulated by the lipoprotein content of the culture medium; host or cells: THP-1 cells (unstimulated)
From the text: THP-1 cells were acquired from American Type Culture Collection and cultured in serum-free RPMI-1640 medium supplemented with 1% Nutridoma-HU for 48 hr to upregulate the LDL receptors. LDL was isolated by ultracentrifugation and radiolabeled using the iodine monochloride method as described in Example 8 to a specific activity 200-300 cpm/ng. Greater than 99% of the ^125 I-LDL ligand was precipitable by 10% TCA. The peptides indicated in FIGS. 1A and 1B were synthesized, as described in Example 1, purified to >95% by high pressure liquid chromatography and the amino acid composition verified. All peptides were solubilized in PBS. "AI 74-105"is a control peptide derived from residues 74-105 of apolipoprotein AI, "Monomer" is p(141-155), "Tandem Peptide" is p(141-155)2, "LDL" is unlabelled LDL, and "aLDL" is acetylated LDL.
Binding and degradation of LDL was evaluated as the disappearance of acid soluble ^125 I-LDL radioactivity from the incubation over a 5-hour incubation at 37C. Various concentrations of unlabeled LDL or tandem apo E peptide were coincubated with the ^125 I-LDL to determine their effects on binding and degradation.
For assay, 5×10^5 THP-1 cells in 0.5ml DMEM were co-incubated in a 1.5ml microfuge tube with 2-5 μg/ml of ^125 I-LDL at 37° C. in the presence of various concentrations of competitors indicated in FIGS. 1A and 1B. After 5 hr the cells were pelleted at 5000 x g, the supernatants were removed and the supernatants were extracted with 10% TCA and counted to form a TCA soluble cpm. The results were expressed as B/Bo where B equals the total TCA soluble cpm in supernatant collected in the presence of LDL or peptide and Bo equals the total TCA soluble cpm in supernatant of phosphate buffered saline (PBS) treated control cells. Each point is the average of 4 replicates with standard error of the mean (SEM),10%.

Compound: CC(C)C[C@H](NC(=O)[C@H](CC(=O)O)NC(=O)[C@H](CC(=O)O)NC(=O)[C@H](C)NC(=O)[C@H](CC(=O)O)NC(=O)[C@H](CCCNC(=N)N)NC(=O)[C@H](CC(C)C)NC(=O)[C@H](CC(C)C)NC(=O)[C@H](CCCNC(=N)N)NC(=O)[C@H](CCCCN)NC(=O)[C@H](CCCNC(=N)N)NC(=O)[C@H](CC(C)C)NC(=O)[C@H](CCCCN)NC(=O)[C@H](CCCNC(=N)N)NC(=O)[C@H](CC(C)C)NC(=O)[C@H](CC(C)C)NC(=O)[C@H](CC(=O)O)NC(=O)[C@H](CC(=O)O)NC(=O)[C@H](C)NC(=O)[C@H](CC(=O)O)NC(=O)[C@H](CCCNC(=N)N)NC(=O)[C@H](CC(C)C)NC(=O)[C@H](CC(C)C)NC(=O)[C@H](CCCNC(=N)N)NC(=O)[C@H](CCCCN)NC(=O)[C@H](CCCNC(=N)N)NC(=O)[C@H](CC(C)C)NC(=O)[C@H](CCCCN)NC(=O)[C@H](CCCNC(=N)N)NC(=O)[C@@H](N)CC(C)C)C(=O)O [p(141-155)2]
- effect on LDL degradation by fibroblasts (LDL receptor [1]): significant enhancement
- molar excess compared with LDL required to achieve 50% inhibition of degradation (LDL receptor [2]): ~200 fold
- inhibition at 12.5 µM (LDL receptor [2]; THP-1, 12.5 uM): 80%
- effect on LDL degradation by THP-1 cells (LDL receptor [2]; low concentrations of the tandem peptide): significant enhancement
- IC50 (LDL receptor [2]; read-out: concentration inhibiting 125I-LDL degradation by 50%): 5 µM
